Data on 22 compounds can be found in ChEMBL document CHEMBL4665809, “Synthesis and biofilm inhibition studies of 2-(2-amino-6-arylpyrimidin-4-yl)quinazolin-4(3H)-ones” (Bioorg Med Chem Lett, 2020).

Data set [1] has as its system Staphylococcus aureus. Nature of the data set: Inhibition of biofilm formation in methicillin-resistant Staphylococcus aureus ATCC 43300 incubated for 24 hrs by crystal violet staining based microtiter plate method. It is filed as functional, organism-based. The note with it: ATCC 43300, 24 h.
The test system of data set [2] is Acinetobacter baumannii. Briefly: Inhibition of biofilm formation in Acinetobacter baumannii at 100 uM incubated for 24 hrs by crystal violet staining based microtiter plate method. It is filed as functional.
The subject of data set [3] is Staphylococcus aureus. Briefly: Inhibition of biofilm formation in methicillin-resistant Staphylococcus aureus ATCC 43300 at 100 uM incubated for 24 hrs by crystal violet staining based microtiter plate method. Format: functional.
Data set [4] relates to CCD-18Co. Briefly: Cytotoxicity against human CCD-18Co cells assessed as reduction in cell viability at 12.5 uM measured after 1 days by MTT assay relative to control. Format: cell-based. The following applies: 24 h, time 1 day. Background: Formazan colour is commonly taken as a measure of viable cells.
Data set [5] relates to CCD-18Co. Nature of the data set: Cytotoxicity against human CCD-18Co cells assessed as reduction in cell viability at 50 uM measured after 1 days by MTT assay relative to control. Format: cell-based. The following applies: 24 h, time 1 day.
Data set [6] has as its system CCD-18Co. Nature of the data set: Cytotoxicity against human CCD-18Co cells assessed as reduction in cell viability at 25 uM measured after 1 days by MTT assay relative to control. It is filed as cell-based. The note with it: 24 h, time 1 day.

The IC50 is the concentration that gives 50% inhibition. Higher therefore signals a need for much substance. What is called inhibition is the percentage by which the read-out fell short of the control. A lower inhibition goes with a response near the control. Regarding `CSc1ccc(-c2cc(-c3nc4ccccc4c(=O)[nH]3)nc(N)n2)cc1`, in data set [1], the IC50 worked out at 22.4 µM. In addition, the inhibition at 100 µM in data set [2] was below 25%; in data set [3], above 50%.
In data set [2], `Nc1nc(-c2nc3ccccc3c(=O)[nH]2)cc(-c2cccc3ccccc23)n1` had an inhibition at 100 µM below 25%.
Compound `Nc1nc(-c2cccc(OCc3ccccc3)c2)cc(-c2nc3ccccc3c(=O)[nH]2)n1` had an inhibition at 100 µM in data set [2] below 25%.
In data set [1], `COc1cccc(-c2cc(-c3nc4ccccc4c(=O)[nH]3)nc(N)n2)c1` gave an IC50 of 84.8 µM. Moreover, the inhibition at 100 µM was below 25% in data set [2] and above 50% in data set [3].
Consider `Nc1nc(-c2cccc(Br)c2)cc(-c2nc3ccccc3c(=O)[nH]2)n1`, for which the IC50 in data set [1] came out at 20.7 µM. In addition, the Activity entry in data set [4] and in data set [5] was “Toxic” in each case. Also, the inhibition at 100 µM is below 25% in data set [2] and above 50% in data set [3].
Regarding `Nc1nc(-c2ccccc2)cc(-c2nc3ccccc3c(=O)[nH]2)n1`, it took 34.4 µM to reach half-maximal inhibition in data set [1] (IC50). Further, the inhibition at 100 µM in data set [2] was below 25%; in data set [3] it was above 50%.
`COc1ccc(-c2cc(-c3nc4ccccc4c(=O)[nH]3)nc(N)n2)c(OC)c1` showed an IC50 in data set [1] of 38.4 µM. For the same compound, the figures for the inhibition at 100 µM in data set [2] and in data set [3] were below 25% and above 50%, respectively.
`Nc1nc(-c2nc3ccccc3c(=O)[nH]2)cc(-c2ccc(Cl)cc2Cl)n1` came in with an IC50 in data set [1] of 42.7 µM. Besides, the results for the inhibition at 100 µM in data set [2] and in data set [3] were below 25% and above 50%, respectively.
The corresponding values for `Nc1nc(-c2nc3ccccc3c(=O)[nH]2)cc(-c2ccco2)n1` are 56.9 µM, below 25% and above 50%.
The compound `COc1cc(OC)cc(-c2cc(-c3nc4ccccc4c(=O)[nH]3)nc(N)n2)c1` gave an IC50 in data set [1] of 50.5 µM. In addition, the inhibition at 100 µM in data set [2] was below 25%; in data set [3], above 50%.
For the compound `Nc1nc(-c2ccc(C(F)(F)F)cc2)cc(-c2nc3ccccc3c(=O)[nH]2)n1`, the IC50 in data set [1] was determined as 86.5 µM. The inhibition at 100 µM was below 25% in data set [2] and above 50% in data set [3].
`COc1cc(OC)c(-c2cc(-c3nc4ccccc4c(=O)[nH]3)nc(N)n2)c(OC)c1` registered an IC50 in data set [1] of 21.2 µM. The Activity entry in data set [6], in data set [4] and in data set [5] was “Non-Toxic” in each case. Also, the inhibition at 100 µM was below 25% in data set [2] and above 50% in data set [3].
Consider `COc1ccc(-c2cc(-c3nc4ccccc4c(=O)[nH]3)nc(N)n2)cc1OC`, for which the inhibition at 100 µM in data set [2] was below 25%.
On to `Nc1nc(-c2nc3ccccc3c(=O)[nH]2)cc(-c2cccs2)n1`, for which 71 µM corresponded to half-maximal inhibition in data set [1] (IC50). The inhibition at 100 µM in data set [2] was below 25%; in data set [3], below 50%.
Take `Nc1nc(-c2ccc(F)cc2)cc(-c2nc3ccccc3c(=O)[nH]2)n1`: the inhibition at 100 µM in data set [2] was below 25%; in data set [3], below 50%.
In data set [1], `Nc1nc(-c2nc3ccccc3c(=O)[nH]2)cc(-c2ccccc2Cl)n1` gave an IC50 of 56.2 µM. Also, the inhibition at 100 µM was below 25% in data set [2] and above 50% in data set [3].
As to `Nc1nc(-c2ccncc2)cc(-c2nc3ccccc3c(=O)[nH]2)n1`, the inhibition at 100 µM in data set [2] is below 25%; in data set [3], below 50%.
Regarding `COc1cc(-c2cc(-c3nc4ccccc4c(=O)[nH]3)nc(N)n2)cc(OC)c1OC`, the inhibition at 100 µM in data set [2] is below 25%.
Consider `Nc1nc(-c2ccc(Cl)cc2)cc(-c2nc3ccccc3c(=O)[nH]2)n1`, for which the inhibition at 100 µM is below 25% in data set [2] and below 50% in data set [3].
In data set [1], `Nc1nc(-c2ccc(OCc3ccccc3)cc2)cc(-c2nc3ccccc3c(=O)[nH]2)n1` returned a half-inhibitory concentration (IC50) of 37.3 µM. Also, the inhibition at 100 µM is below 25% in data set [2] and above 50% in data set [3].
In turn, `Nc1nc(-c2ccc(Br)cc2)cc(-c2nc3ccccc3c(=O)[nH]2)n1` had an IC50 in data set [1] of 47.3 µM. Also, the figures for the inhibition at 100 µM in data set [2] and in data set [3] were below 25% and above 50%, respectively.
In turn, `Cc1ccc(-c2cc(-c3nc4ccccc4c(=O)[nH]3)nc(N)n2)cc1` had an inhibition at 100 µM in data set [2] below 25%.
